# In article PMC3462610 (Biochemical Journal, 2011):
# Where no end group is shown, it is not given here.
# Legend:
# activated His–JNK2–FLAG = activated His–JNK2–FLAG (Homo sapiens, UniProt P45984); experiment: biochemical
# endogenous JNK2 = experiment: Co-immunoprecipitation of endogenous WDR62 with JNK2, HEK-293T; assay type: binding, human; conditions: anti-WDR62 3G8
# Endogenous MKK7 = experiment: Co-immunoprecipitation of endogenous WDR62 with MKK7, HEK-293T; assay type: binding, human; conditions: anti-WDR62 3G8
# JNK1 = experiment: Co-immunoprecipitation of endogenous WDR62 with JNK1, HEK-293T; assay type: binding, human; conditions: authors attribute it to lower JNK1 expression level
# JNK3 = experiment: GST pull-down with WDR62 1018-C–GST constructs; assay type: binding, human; conditions: HEK-293T
# EGFP–JNK1 = experiment: Immunofluorescence, recruitment of EGFP–JNK1 to cellular granules in HeLa cells; assay type: cell-based, human; conditions: 24 h after transfection, confocal microscopy
# MKK7α and MKK7β = conditions: cited from earlier work
# Sequence of activated His–JNK2–FLAG (P45984 whole entry): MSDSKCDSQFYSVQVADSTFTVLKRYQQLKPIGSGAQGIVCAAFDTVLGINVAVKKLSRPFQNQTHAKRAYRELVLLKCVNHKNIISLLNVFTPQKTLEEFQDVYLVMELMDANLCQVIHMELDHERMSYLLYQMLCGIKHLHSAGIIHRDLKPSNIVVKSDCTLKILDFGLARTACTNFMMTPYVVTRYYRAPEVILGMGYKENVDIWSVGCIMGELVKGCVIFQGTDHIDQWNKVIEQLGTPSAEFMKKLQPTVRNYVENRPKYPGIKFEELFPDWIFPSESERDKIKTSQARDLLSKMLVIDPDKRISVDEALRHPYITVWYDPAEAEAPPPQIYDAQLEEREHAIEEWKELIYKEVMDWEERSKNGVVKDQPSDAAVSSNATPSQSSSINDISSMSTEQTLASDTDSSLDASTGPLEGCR
molecule,measurement,setting,value
GRKKRRQRRRPPNHEARANLRLTLSSACDGLL [WDR62 peptide],IC50,activated His–JNK2–FLAG,5 µM
"WDR62: full-length WDR62 (endogenous, or Myc-tagged wild-type); JNK scaffold protein",co-precipitation of endogenous JNK2,endogenous JNK2,presence of endogenous JNK2
same,co-precipitation of endogenous MKK7,Endogenous MKK7,also detected
same,interaction with JNK1,JNK1,lack of interaction
same,association with JNK3,JNK3,strongest association with the neuronal-enriched JNK3 isoform
same,recruitment of EGFP–JNK1 to cellular granules,EGFP–JNK1,efficiently recruited to these granules
"JIP1 scaffold protein: JIP1 (JNK-interacting protein 1) scaffold protein (protein, UniProt Q9UQF2 1-711, looked up) C-Jun-amino-terminal …: MAERESGGLGGGAASPPAASPFLGLHIASPPNFRLTHDISLEEFEDEDLSEITDECGISLQCKDTLSLRPPRAGLLSAGGGGAGSRLQAEMLQMDLIDATGDTPGAEDDEEDDDEERAARRPGAGPPKAESGQEPASRGQGQSQGQSQGPGSGDTYRPKRPTTLNLFPQVPRSQDTLNNNSLGKKHSWQDRVSRSSSPLKTGEQTPPHEHICLSDELPPQSGPAPTTDRGTSTDSPCRRSTATQMAPPGGPPAAPPGGRGHSHRDRIHYQADVRLEATEEIYLTPVQRPPDAAEPTSAFLPPTESRMSVSSDPDPAAYPSTAGRPHPSISEEEEGFDCLSSPERAEPPGGGWRGSLGEPPPPPRASLSSDTSALSYDSVKYTLVVDEHAQLELVSLRPCFGDYSDESDSATVYDNCASVSSPYESAIGEEYEEAPRPQPPACLSEDSTPDEPDVHFSKKFLNVFMSGRSRSSSAESFGLFSCIINGEEQEQTHRAIFRFVPRHEDELELEVDDPLLVELQAEDYWYEAYNMRTGARGVFPAYYAIEVTKEPEHMAALAKNSDWVDQFRVKFLGSVQVPYHKGNDVLCAAMQKIATTRRLTVHFNPPSSCVLEISVRGVKIGVKADDSQEAKGNKCSHFFQLKNISFCGYHPKNNKYFGFITKHPADHRFACHVFVSEDSTKALAESVGRAFQQFYKQFVEYTCPTEDIYLE",interaction with MKK7α and MKK7β,MKK7α and MKK7β,interacts with both MKK7α and MKK7β
